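In this assay, cells in 96-well plates receive the compound at five concentrations for 48 hours. Endpoints are linearly interpolated between the surrounding concentrations. GI50: concentration for 50% inhibition of growth. TGI marks complete inhibition of growth.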
How the values were obtained:
Assay in all cases: NCI anticancer screen, dose series, 48 h
NCI-H460 lung = system: NCI-H460 lung
U251 CNS = system: U251 CNS
OVCAR-5 ovarian = system: OVCAR-5 ovarian
TK-10 renal = system: TK-10 renal
SK-MEL-2 melanoma = system: SK-MEL-2 melanoma
MDA-MB-435 = system: MDA-MB-435
NCI-H23 lung = system: NCI-H23 lung
BT-549 breast = system: BT-549 breast
HOP-92 NSCLC = system: HOP-92 NSCLC
T-47D breast = system: T-47D breast
HT29 colon = system: HT29 colon
786-0 renal = system: 786-0 renal
SK-MEL-28 melanoma = system: SK-MEL-28 melanoma
RXF 393 renal = system: RXF 393 renal
DU-145 prostate = system: DU-145 prostate
MCF7 breast = system: MCF7 breast
IGROV1 ovarian = system: IGROV1 ovarian
NCI-H522 lung = system: NCI-H522 lung
A549 NSCLC = system: A549 NSCLC
EKVX NSCLC = system: EKVX NSCLC
HCC-2998 colon = system: HCC-2998 colon
K-562 leukemia = system: K-562 leukemia
LOX IMVI melanoma = system: LOX IMVI melanoma
HCT-116 colon = system: HCT-116 colon
UACC-257 melanoma = system: UACC-257 melanoma
SK-OV-3 ovarian = system: SK-OV-3 ovarian
HOP-62 NSCLC = system: HOP-62 NSCLC
OVCAR-3 ovarian = system: OVCAR-3 ovarian
A498 renal = system: A498 renal
SN12C renal = system: SN12C renal
NCI/ADR-RES ovarian = system: NCI/ADR-RES ovarian
HL-60(TB) leukemia = system: HL-60(TB) leukemia
UO-31 renal = system: UO-31 renal
COLO 205 colon = system: COLO 205 colon
UACC-62 melanoma = system: UACC-62 melanoma
CCRF-CEM leukemia = system: CCRF-CEM leukemia
MDA-MB-231 breast = system: MDA-MB-231 breast
OVCAR-4 ovarian = system: OVCAR-4 ovarian
KM12 colon = system: KM12 colon
SNB-19 CNS = system: SNB-19 CNS
HS 578T breast = system: HS 578T breast
SR leukemia = system: SR leukemia
CAKI-1 renal = system: CAKI-1 renal
SW-620 colon = system: SW-620 colon
MOLT-4 leukemia = system: MOLT-4 leukemia
SNB-75 CNS = system: SNB-75 CNS
SK-MEL-5 melanoma = system: SK-MEL-5 melanoma
SF-295 CNS = system: SF-295 CNS
SF-268 CNS = system: SF-268 CNS
PC-3 prostate = system: PC-3 prostate
HCT-15 colon = system: HCT-15 colon
ACHN renal = system: ACHN renal
MALME-3M melanoma = system: MALME-3M melanoma
M14 melanoma = system: M14 melanoma
NCI-H226 lung = system: NCI-H226 lung
RPMI-8226 leukemia = system: RPMI-8226 leukemia
OVCAR-8 ovarian = system: OVCAR-8 ovarian
SF-539 CNS = system: SF-539 CNS

Structure (SMILES): Nc1ncc(-c2ccc3ncnc(N4CCc5cc(F)c(Cl)cc54)c3c2)cc1CO
- GI50 (NCI-H460 lung): 413 nM
- TGI (NCI-H460 lung): 3.56 µM
- GI50 (U251 CNS): 1430 nM
- TGI (U251 CNS): 7.95 µM
- GI50 (OVCAR-5 ovarian): 422 nM
- TGI (OVCAR-5 ovarian): 12.1 µM
- GI50 (TK-10 renal): 231 nM
- TGI (TK-10 renal): 2030 nM
- GI50 (SK-MEL-2 melanoma): 1090 nM
- TGI (SK-MEL-2 melanoma): 2890 nM
- GI50 (MDA-MB-435): 418 nM
- TGI (MDA-MB-435): 1990 nM
- GI50 (NCI-H23 lung): 803 nM
- TGI (NCI-H23 lung): 3.72 µM
- GI50 (BT-549 breast): 321 nM
- TGI (BT-549 breast): 2050 nM
- GI50 (HOP-92 NSCLC): 115 nM
- TGI (HOP-92 NSCLC): 1530 nM
- GI50 (T-47D breast): 169 nM
- TGI (T-47D breast): 936 nM
- GI50 (HT29 colon): 950 nM
- TGI (HT29 colon): 10.2 µM
- GI50 (786-0 renal): 474 nM
- TGI (786-0 renal): 5 µM
- GI50 (SK-MEL-28 melanoma): 393 nM
- TGI (SK-MEL-28 melanoma): 5.21 µM
- GI50 (RXF 393 renal): 318 nM
- TGI (RXF 393 renal): 1170 nM
- GI50 (DU-145 prostate): 619 nM
- TGI (DU-145 prostate): > 41.8 µM
- GI50 (MCF7 breast): 210 nM
- TGI (MCF7 breast): 2520 nM
- GI50 (IGROV1 ovarian): 178 nM
- TGI (IGROV1 ovarian): 724 nM
- GI50 (NCI-H522 lung): 419 nM
- TGI (NCI-H522 lung): 3.02 µM
- GI50 (A549 NSCLC): 522 nM
- TGI (A549 NSCLC): 3.21 µM
- GI50 (EKVX NSCLC): 259 nM
- TGI (EKVX NSCLC): 1930 nM
- GI50 (HCC-2998 colon): 1200 nM
- TGI (HCC-2998 colon): 5.12 µM
- GI50 (K-562 leukemia): 887 nM
- TGI (K-562 leukemia): > 23.2 µM
- GI50 (LOX IMVI melanoma): 747 nM
- TGI (LOX IMVI melanoma): 3.94 µM
- GI50 (HCT-116 colon): 1260 nM
- TGI (HCT-116 colon): 5.02 µM
- GI50 (UACC-257 melanoma): 644 nM
- TGI (UACC-257 melanoma): 4.31 µM
- GI50 (SK-OV-3 ovarian): 451 nM
- TGI (SK-OV-3 ovarian): 2820 nM
- GI50 (HOP-62 NSCLC): 776 nM
- TGI (HOP-62 NSCLC): 5.12 µM
- GI50 (OVCAR-3 ovarian): 468 nM
- TGI (OVCAR-3 ovarian): 4.84 µM
- GI50 (A498 renal): 110 nM
- TGI (A498 renal): 611 nM
- GI50 (SN12C renal): 435 nM
- TGI (SN12C renal): 11.2 µM
- GI50 (NCI/ADR-RES ovarian): 1660 nM
- TGI (NCI/ADR-RES ovarian): 9.1 µM
- GI50 (HL-60(TB) leukemia): 1070 nM
- TGI (HL-60(TB) leukemia): 4.5 µM
- GI50 (UO-31 renal): 154 nM
- TGI (UO-31 renal): 5 µM
- GI50 (COLO 205 colon): 1170 nM
- TGI (COLO 205 colon): 2820 nM
- GI50 (UACC-62 melanoma): 266 nM
- TGI (UACC-62 melanoma): 1610 nM
- GI50 (CCRF-CEM leukemia): 1580 nM
- TGI (CCRF-CEM leukemia): 11.2 µM
- GI50 (MDA-MB-231 breast): 697 nM
- TGI (MDA-MB-231 breast): 6.54 µM
- GI50 (OVCAR-4 ovarian): 615 nM
- TGI (OVCAR-4 ovarian): 5.23 µM
- GI50 (KM12 colon): 1650 nM
- TGI (KM12 colon): 8.23 µM
- GI50 (SNB-19 CNS): 1430 nM
- TGI (SNB-19 CNS): 12.9 µM
- GI50 (HS 578T breast): 404 nM
- TGI (HS 578T breast): 2940 nM
- GI50 (SR leukemia): 475 nM
- TGI (SR leukemia): 4.66 µM
- GI50 (CAKI-1 renal): 282 nM
- TGI (CAKI-1 renal): 3.76 µM
- GI50 (SW-620 colon): 1640 nM
- TGI (SW-620 colon): 9.48 µM
- GI50 (MOLT-4 leukemia): 525 nM
- TGI (MOLT-4 leukemia): 4.72 µM
- GI50 (SNB-75 CNS): 50.6 nM
- TGI (SNB-75 CNS): 1110 nM
- GI50 (SK-MEL-5 melanoma): 838 nM
- TGI (SK-MEL-5 melanoma): 2200 nM
- GI50 (SF-295 CNS): 453 nM
- TGI (SF-295 CNS): 3.17 µM
- GI50 (SF-268 CNS): 663 nM
- TGI (SF-268 CNS): 7.89 µM
- GI50 (PC-3 prostate): 343 nM
- TGI (PC-3 prostate): 25.1 µM
- GI50 (HCT-15 colon): 798 nM
- TGI (HCT-15 colon): 5.25 µM
- GI50 (ACHN renal): 365 nM
- TGI (ACHN renal): 20.5 µM
- GI50 (MALME-3M melanoma): 186 nM
- TGI (MALME-3M melanoma): 1420 nM
- GI50 (M14 melanoma): 543 nM
- TGI (M14 melanoma): 3.9 µM
- GI50 (NCI-H226 lung): 570 nM
- TGI (NCI-H226 lung): 9.14 µM
- GI50 (RPMI-8226 leukemia): 395 nM
- TGI (RPMI-8226 leukemia): 3.72 µM
- GI50 (OVCAR-8 ovarian): 883 nM
- TGI (OVCAR-8 ovarian): 10.4 µM
- GI50 (SF-539 CNS): 1270 nM
- TGI (SF-539 CNS): 4.45 µM

Reference: PubChem BioAssay (NCI)
